# Source: patent US8440669B2, “Pharmaceutical composition for prevention and treatment of diabetes or obesity comprising a compound that inhibits activity of dipeptidyl peptidase-IV, and other antidiabetic or antiobesity agents as active ingredients” (Dong-A Pharmaceutical Co. Ltd., priority 2008, dated 2013)
# “And” between values parts separate entries of the source, which are not always exact repeats. Equal values may be shown once.
# Legend:
# Type in all cases: in vivo
# blood glucose [1] = experiment: Oral glucose tolerance test (OGTT), single administration in normal mice; ED30 and isobologram; details: C57BL/6 mice; for ED30 ± (SEM): dose giving 30% inhibition of OGTT blood glucose AUC, single agent
# Procedure: (§1) Laboratory mice (C57BL/6 mice) as experimental subjects were fasted for 16 to 17 hours prior to the experiments. Blood was collected from caudal veins of mice in the morning on the day of the experiment and a blood glucose level was measured with an ACCU-CHEK ACTIVE Blood Glucose Meter (Roche Diagnostics). The pharmaceutical composition of the present invention was given orally 30 min prior to glucose administration (−30 min), followed by oral administration of a glucose solution (2 g/kg/10 mL) after 30 min (0 min). Blood collection was made at designated time points—just prior to drug administration, just prior to glucose administration, and 15, 30, 60 and 90 min after glucose administration.
# Effects of single administration of the individual agents on a blood glucose change curve in an oral glucose tolerance test (OGTT) were identified by percent inhibition (%) and ED30. The percent inhibition values for each treatment were generated from the area under curve (AUC) data normalized to the non-glucose challenged controls by subtracted blood glucose AUC of non-glucose challenged controls from glucose challenged groups, and comparing the value with that of a control group in which glucose has been administered.
# Feasible synergistic effects of a composition at each fixed ratio were analyzed by isobologram (R. J. Tallarida et al, Life Sci. 1989, 45, 947). […] When the result of ED30mix<ED30add is established at a certain fixed ratio, the mixture has synergistic effects. ED30add was calculated from ED30 of each drug. In FIG. 1, fractions of the ED30 values of each material are present on each axis thereof. The ED30 value of the compound prepared in Preparation Example 1 only is 0.2 mg/kg and shown as value 1 in FIG. 1, and the ED30 value of metformin only is 30 mg/kg and shown as value 1 in FIG. 1. Therefore, the line combining the ED30 values of the two individual drugs indicates a simple additivity (ED30add) calculated from glucose tolerance effects at different ratios. Therefore, the points designated as A, B, C, and D in FIG. 1 with respect to each mixture studied indicate fractions of ED30 values (ED30mic) determined by actual experiments performed on a mixtures of the compound prepared in Preparation Example 1 and metformin at ratios of 9:1, 5:1, 1:1, and 1:3. The points A′, B′, C′, and D′ in FIG. 1 indicate fractions of doses (ED30add) corresponding to mixtures of the compound prepared in Preparation Example 1 and metformin at ratios of 9:1, 5:1, 1:1, and 1:3 expected under a simple additivity.
# The ratios of doses actually administered to animals in each fraction were calculated by multiplying 0.2 mg/kg and 30 mg/kg which are ED30 values of the compound prepared in Preparation Example 1 and metformin, respectively with a desired ratio. Administrations were performed in the ranges of: 0.045˜0.36 mg/kg of the compound prepared in Preparation Example 1+0.75˜6 mg/kg of metformin at a ratio of 9:1, 0.042˜0.33 mg/kg of the compound prepared in Preparation Example 1+1.25˜10 mg/kg of metformin at a ratio of 5:1, 0.025˜0.2 mg/kg of the compound prepared in Preparation Example 1+[…] of metformin at a ratio of 1:1, 0.0125˜0.2 mg/kg of the compound prepared in Preparation Example 1+5.625˜45 mg/kg of metformin at a ratio of 1:3. When this is applied to a healthy adult (about 70 kg), the dose corresponds to 0.88˜25.2 mg of the compound prepared in Preparation Example 1 and 52.5˜3150 mg of metformin, and includes a daily clinical dose of metformin, which is 500˜2000 mg.
# blood glucose [2] = experiment: OGTT, single administration in diet-induced obesity mice; details: obese mice
# Procedure: (§2) In order to examine synergistic effects of a compound prepared in Preparation Example 1 of the present invention and metformin complex by repeated administration, effects of a single administration to obese mice on an OGTT blood glucose change curve and of a 2-week repeated administration on the percent inhibition of blood glucose were evaluated. Diet-induced obesity mice obtained by supplying experimental mice (C57BL/6 mice) with high fat fodder (60 kcal % fat, Research Diets, D12492) for 5 month were used as experimental subjects. 0.5% methylcellulose (MC) was used to prepare a suspension of the compound 1 prepared in Preparation Example 1 with a composition of 0.1 mg/kg and 0.15 mg/kg. 0.5% MC was used to prepare a suspension of metformin with a composition of 7.5 mg/kg and 15 mg/kg. […] of the complex was prepared in doses of (0.1 mg/kg of a compound prepared in Preparation Example 1+15 mg/kg of metformin)/5 mL and (0.15 mg/kg of a compound prepared in Preparation Example 1+7.5 mg/kg of metformin)/5 mL.
# as §1, with “Obese” for “Laboratory”, “mice” for “mice (C57BL/6 mice) as experimental subjects”, “experiments, blood” for “experiments. Blood”, “mixed” for “pharmaceutical”, “administration. The percent inhibition value was calculated by calculating an area under curve of each group and comparing the value with that of a control group in which glucose had been administered.” for “administration.”
# plasma glucose = experiment: Plasma glucose after 2-week repeated administration in diet-induced obesity mice; details: obese mice
# Procedure: as §2
# blood glucose [3] = experiment: Blood glucose after 7-day administration in db/db diabetic mice
# Procedure: In order to examine synergistic effects of a complex by a compound prepared in Preparation Example 1 of the present invention and an insulin sensitizer PPARγ agonist, the percent inhibition of blood glucose by repeated administration of the complex to db/db mice as diabetic mice was evaluated. Eight-week-old male mice (db/db mice) were used as experimental subjects. […] The dose of a compound prepared in Preparation Example 1 with respect to rosiglitazone at a fixed dose was selected at 1 mg/kg and 40 mg/kg (complex ratio 1:0.01˜1:0.4) in consideration of a complex ratio in an expected clinical dose. […] 0.5% methylcellulose (MC) was at each drug concentration to prepare suspensions. Each compound was weighed, and 0.5% methylcellulose was used to prepare 5 mL/kg of suspensions with each composition of (1 mg of the compound prepared in Preparation Example 1+0.4 mg of rosiglitazone)/5 mL and (40 mg of the compound prepared in Preparation Example 1+0.4 mg of rosiglitazone)/5 mL.
# The percent inhibition value with respect to blood glucose was calculated by comparison with a control group.
# blood glucose [4] = experiment: OGTT, single administration in C57BL/6 mice (glimepiride combination)
# Procedure: In order to examine synergistic effects of a complex of a compound prepared in Preparation Example 1 of the present invention and an insulin secretagogue sulfonyl urea-series drug, the percent inhibitions of single administration OGTT blood glucose change curves by individual materials and complexes were evaluated. 8-week-old male experimental mice (C57BL/6 mice) were used and fasted for 16 to 17 hours prior to the experiments. Blood was collected from caudal veins of mice in the morning on the day of the experiment and a blood glucose level was measured with an ACCU-CHEK ACTIVE Blood Glucose Meter (Roche Diagnostics). The mixed composition of the present invention was given orally 30 min prior to glucose administration (−30 min), followed by oral administration of a glucose solution (2 g/kg/10 mL) after 30 min (0 min). Blood collection was made at designated time points—just prior to drug administration, just prior to glucose administration, and 15, 30, 60 and 90 min after glucose administration. […] In order to evaluate synergistic or additive effects by complex in the present evaluation, 0.5% methylcellulose (MC) was used to prepare a suspension with a dose of a compound prepared in Preparation Example 1 at 0.1 mg/kg, and 0.5% MC was also used to prepare a suspension with a composition of an insulin secretagogue sulfonyl urea-series drug and glimepiride at 0.02 mg/kg and 0.32 mg/kg such that a complex ratio may be included at a clinical dose expected in a fixed state of a compound prepared in Preparation Example 1. […] A complex thereof was prepared at 10 mL per kg by weighing individual compounds and mixing the compounds with each composition ((a compound prepared in Preparation Example 10.1 mg+glimepiride 0.02 mg)/10 mL and (a compound prepared in Preparation Example 10.1 mg+glimepiride 0.32 mg)/10 mL)).
# blood glucose [5] = experiment: Oral sucrose tolerance test, single administration in C57BL/6 mice (voglibose combination)
# Procedure: In order to examine synergistic effects of a compound prepared in Preparation Example 1 of the present invention and an α-glucosidase inhibitor-series drug by complexing drugs, the percent inhibition in a single administration oral sucrose tolerance test blood glucose change curve by individual materials and a complex thereof was evaluated. 8-week-old male experimental mice (C57BL/6 mice) were used as experimental subjects. The mice were fasted for 16 to 17 hours prior to the experiments. Blood was collected from caudal veins of mice in the morning on the day of the experiment and a blood glucose level was measured with an ACCU-CHEK ACTIVE Blood Glucose Meter (Roche Diagnostics). The pharmaceutically mixed composition of the present invention was given orally 30 min prior to sucrose administration (−30 min), followed by oral administration of a […] (2 g/kg/10 mL) after 30 min (0 min). Blood collection was made at designated time points—just prior to drug administration, just prior to sucrose administration, and 15, 30, 60, 90, and 120 min after sucrose administration. […] In order to evaluate synergistic or additive effects by complexes in the present evaluation, 0.5% methylcellulose (MC) was used to prepare a suspension with a compound prepared in Preparation Example 1 at a dose of 0.3 mg/kg, and 0.5% MC was also used to prepare a suspension with a composition of an α-glucosidase inhibitor and voglibose at 0.009 mg/kg and 0.054 mg/kg (complex ratio 1:0.031:0.18) such that a complex ratio may be included at a clinical dose expected in a state where a dose of a compound prepared in Preparation Example 1 was fixed.
# blood glucose [6] = experiment: OGTT after 4-week administration in diet-induced obesity mice (rimonabant combination); details: obese mice
# Procedure: (§3) In order to examine synergistic effects by repeated administration of a compound prepared in Preparation Example 1 and cannabinoid receptor-1 antagonist, effects of 4-week administration to obese mice on an OGTT blood glucose change curve and on fat mass were evaluated. Diet-induced obesity mice obtained by supplying experimental mice (C57BL/6 mice) with high fat fodder (60 kcal % fat, Research Diets, D12492) for 5 month were used as experimental subjects. 0.5% methylcellulose (MC) was used to prepare a suspension of the compound 1 prepared in Preparation Example 1 with a composition of 0.3 mg/kg which is presumed to be a dose of minimum effective efficacy and 3 mg/kg. 0.5% MC was used to prepare a suspension of rimonabant, a cannabinoid receptor-1 antagonist with a composition of 3 mg/kg. Rimonabant has the same parent nucleus structure as a cannabinoid receptor-1 antagonist, such as Otenabant, Ibinabant, and Surinabant, and 5 mL/kg of the complex thereof was prepared in doses of (0.3 mg of a compound prepared in Preparation Example 1+3 mg of rimonabant)/5 mL and (3 mg of a compound prepared in Preparation Example 1+3 mg/kg of rimonabant)/5 mL. When the mixing ratio is 1:0.1 or less, or 1:1 or more, the dose may exceed a daily clinical dose of rimonabant or poor efficacy may occur. Thus, the mixing ratio was set at […].
# Obese mice were fasted for 16 to 17 hours prior to the experiments, blood was collected from caudal veins of mice in the morning on the day of the experiment and a blood glucose level was measured with an ACCU-CHEK ACTIVE Blood Glucose Meter (Roche Diagnostics). The pharmaceutically mixed composition of the present invention was given orally 30 min prior to glucose administration (−30 min), followed by oral administration of a glucose solution (2 g/kg/10 mL) after 30 min (0 min). […] The percent inhibition value was calculated by calculating an area under curve of each group and comparing the value with that of a control group in which glucose had been administered.
# [7] = Fat mass (epidydimal + retroperitoneal fat) after 4-week administration in diet-induced obesity mice; details: 4 weeks; for Fat mass: HF-DIO mice (control 3.61 ± 0.20); for % reduction (fat mass): vs HF-DIO control group
# Procedure: as §3
# Experiments were performed on the experimental subject and experimental drug in the same manner as in Experimental Example 5-1, the fat mass was calculated as a sum of epidydimal fat and retroperitoneal fat, and fat mass 4 weeks after administration was measured.
compound,measurement,setting,value
"CC(C)(C)OC[C@@H]1C(=O)NCCN1C(=O)C[C@H](N)Cc1cc(F)c(F)cc1F [(R)-4-[(R)-3-amino-4-(2,4,5-trifluorophenyl)-butanoyl]-3-(t-butoxymethyl)piperazin-2-one]",ED30 ± (SEM),blood glucose [1],0.20 mg/kg and 0.2 mg/kg and 0.20 ± 0.04 mg/kg
same,"Percent inhibition (blood glucose AUC, OGTT)",blood glucose [1]; single oral dose 0.1 mg/kg,18.5%
same,"Percent inhibition (blood glucose AUC, OGTT)",blood glucose [1]; single oral dose 0.3 mg/kg,38.7%
same,"Percent inhibition (blood glucose AUC, OGTT)",blood glucose [1]; single oral dose 1 mg/kg,54.8%
same,"Percent inhibition (blood glucose AUC, OGTT)",blood glucose [2]; single administration 0.1 mg/kg,2%
same,"Percent inhibition (blood glucose AUC, OGTT)",blood glucose [2]; single administration 0.15 mg/kg,3%
same,Percent inhibition (plasma glucose vs control),plasma glucose; 2-week repeated administration 0.1 mg/kg,2%
same,Percent inhibition (plasma glucose vs control),plasma glucose; 2-week repeated administration 0.15 mg/kg,15%
same,Percent inhibition (blood glucose vs control),blood glucose [3]; 7 days oral 1 mg/kg,21%
same,Percent inhibition (blood glucose vs control),blood glucose [3]; 7 days oral 40 mg/kg,11%
same,"Percent inhibition (blood glucose AUC, OGTT)",blood glucose [4]; single oral dose 0.1 mg/kg,7.7%
same,"Percent inhibition (blood glucose AUC, oral sucrose tolerance test)",blood glucose [5]; single oral dose 0.3 mg/kg,12%
same,"Percent inhibition (blood glucose AUC, OGTT)",blood glucose [6]; 4-week administration 0.3 mg/kg,18.2%
same,"Percent inhibition (blood glucose AUC, OGTT)",blood glucose [6]; 4-week administration 3 mg/kg,35.3%
same,Fat mass,[7]; 0.3 mg/kg,3.67 ± 0.12 g
same,% reduction (fat mass),[7]; 0.3 mg/kg,−1.65%
same,Fat mass,[7]; 3 mg/kg,3.29 ± 0.21 g
same,% reduction (fat mass),[7]; 3 mg/kg,8.71%
"CCC1=C(C)CN(C(=O)NCCc2ccc(S(=O)(=O)NC(=O)N[C@H]3CC[C@H](C)CC3)cc2)C1=O [Glimepiride, glimepiride]","Percent inhibition (blood glucose AUC, OGTT)",blood glucose [4]; single oral dose 0.02 mg/kg,−3.69%
same,"Percent inhibition (blood glucose AUC, OGTT)",blood glucose [4]; single oral dose 0.32 mg/kg,10.9%
"CN(C)C(=N)N=C(N)N [Metformin, metformin, reference compound]",ED30 ± (SEM),blood glucose [1],29.6 mg/kg and 30 mg/kg and 29.6 ± 6.68 mg/kg
same,"Percent inhibition (blood glucose AUC, OGTT)",blood glucose [1]; single oral dose 10 mg/kg,7.43%
same,"Percent inhibition (blood glucose AUC, OGTT)",blood glucose [1]; single oral dose 30 mg/kg,29.06%
same,"Percent inhibition (blood glucose AUC, OGTT)",blood glucose [1]; single oral dose 100 mg/kg,54.46%
same,"Percent inhibition (blood glucose AUC, OGTT)",blood glucose [2]; single administration 7.5 mg/kg,7%
same,"Percent inhibition (blood glucose AUC, OGTT)",blood glucose [2]; single administration 15 mg/kg,11%
same,Percent inhibition (plasma glucose vs control),plasma glucose; 2-week repeated administration 7.5 mg/kg,13%
same,Percent inhibition (plasma glucose vs control),plasma glucose; 2-week repeated administration 15 mg/kg,14%
"Cc1c(C(=O)NN2CCCCC2)nn(-c2ccc(Cl)cc2Cl)c1-c1ccc(Cl)cc1 [Rimonabant, rimonabant, reference compound]","Percent inhibition (blood glucose AUC, OGTT)",blood glucose [6]; 4-week administration 3 mg/kg,1.1%
same,Fat mass,[7]; 3 mg/kg,2.11 ± 0.31 g
same,% reduction (fat mass),[7]; 3 mg/kg,41.5%
"CN(CCOc1ccc(CC2SC(=O)NC2=O)cc1)c1ccccn1 (stereo not shown) [Rosiglitazone, rosiglitazone, reference compound]",Percent inhibition (blood glucose vs control),blood glucose [3]; 7 days oral 0.4 mg/kg,10%
"OCC(CO)N[C@H]1C[C@](O)(CO)[C@@H](O)[C@H](O)[C@H]1O [Voglibose, voglibose]","Percent inhibition (blood glucose AUC, oral sucrose tolerance test)",blood glucose [5]; single oral dose 0.009 mg/kg,1%
same,"Percent inhibition (blood glucose AUC, oral sucrose tolerance test)",blood glucose [5]; single oral dose 0.054 mg/kg,53%
